pIC50: −log10 of the molar value.
Target: T1, Axl (Homo sapiens, UniProt P30530)
T1 construct: endogenous in cells; host or cells: HeLa cells
T1 sequence (P30530 26-894): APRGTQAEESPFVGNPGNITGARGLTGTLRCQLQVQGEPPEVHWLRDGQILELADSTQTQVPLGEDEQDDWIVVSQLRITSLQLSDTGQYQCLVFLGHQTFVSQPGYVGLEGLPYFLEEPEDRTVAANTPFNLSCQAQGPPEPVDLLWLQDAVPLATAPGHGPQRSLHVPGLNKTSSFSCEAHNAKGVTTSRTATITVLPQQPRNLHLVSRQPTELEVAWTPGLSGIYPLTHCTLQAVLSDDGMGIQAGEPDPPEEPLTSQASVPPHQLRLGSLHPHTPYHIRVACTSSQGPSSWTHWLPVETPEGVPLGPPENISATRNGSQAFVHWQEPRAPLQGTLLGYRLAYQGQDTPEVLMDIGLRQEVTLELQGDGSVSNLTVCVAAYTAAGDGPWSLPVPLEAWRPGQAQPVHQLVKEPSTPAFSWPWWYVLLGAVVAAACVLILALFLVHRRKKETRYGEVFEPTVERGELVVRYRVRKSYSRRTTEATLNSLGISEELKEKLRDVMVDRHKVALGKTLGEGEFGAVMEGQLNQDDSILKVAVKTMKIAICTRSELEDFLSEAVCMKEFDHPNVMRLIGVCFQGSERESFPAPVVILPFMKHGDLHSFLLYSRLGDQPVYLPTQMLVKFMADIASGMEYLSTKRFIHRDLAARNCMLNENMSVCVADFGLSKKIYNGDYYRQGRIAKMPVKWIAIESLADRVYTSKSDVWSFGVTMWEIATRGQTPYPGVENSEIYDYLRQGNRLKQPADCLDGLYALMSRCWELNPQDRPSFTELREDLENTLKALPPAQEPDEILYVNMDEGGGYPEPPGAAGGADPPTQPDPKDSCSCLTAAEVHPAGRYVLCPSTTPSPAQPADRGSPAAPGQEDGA
Assay: Phospho-Akt in-cell Western assay
Assay type: cell-based
Details: Hela cells, stimulated by Axl-antibody cross-linking, phospho-Akt chemiluminescence
Protocol: Phospho-Akt in-Cell Western Assay
The compounds of the invention were tested in the following assay for their ability to inhibit Axl activity.
• Cell culture plate: 96 well assay plate (Corning 3610), white, clear bottom, tissue-culture treated. • Cells: Hela cells. • Starvation medium: For Axl stimulation: 0.5% FCS (fetal calf serum) in DMEM, plus Axl/Fc (extracellular domain of AXL fused to imunoglobulin Fc region) (R&D, 154-AL) 500 ng/mL. • For EGF (epidermal growth factor) stimulation: 0.5% FCS in DMEM (Dulbecco's modified Eagles medium). • Poly-L-Lysine 0.01% solution (the working solution): 10 μg/ml, dilute In PBS (phosphate buffered saline). • Axl antibody cross-linking: • 1st: Mouse anti-Axl (R&D, MAB154). • 2nd: Biotin-SP-conjugated AffiniPure goat anti-mouse IgG (H+L) (Jackson ImmunoResearch #115-065-003). • Fixing buffer: 4% formaldehyde in PBS. • Wash buffer: 0.1% TritonX-100 in PBS. • Quenching buffer: 3% H2O2, 0.1% Azide in wash buffer, Azide and hydrogen peroxide (H2O2) are added fresh. • Blocking buffer: 5% BSA in TBST (tris buffered saline plus 0.1% Tween 20). • Primary antibody: Rabbit anti-human Phospho-Akt antibody (Cell Signaling 9271): 1×250 diluted in blocking buffer. • Secondary antibody: HRP (horse radish peroxidase)-conjugated Goat anti-Rabbit secondary, stock solution: Jackson ImmunoResearch (Goat anti-Rabbit HRP, #111-035-144) 1:1 diluted in glycerol, store at −20° C. The working solution: 1×2000 dilution of stock in blocking buffer. • Chemiluminescent working solution (Pierce, 37030): SuperSignal ELISA (enzyme linked immunosorbant assay) Pico Chemiluminescent substrate. • Crystal Violet solution: Stock: 2.5% Crystal violet in methanol, filtered and kept at ambient temperature. The working solution: dilute the stock 1:20 with PBS immediately before use. • 10% SDS: working solution: 5% SDS (sodium dodecylsulfate), diluted in PBS Methods: Day 1:
A 96 well TC (tissue culture treated) plate was coated with 10 μg/mL poly-L-Lysine at 37° C. for 30 min, washed twice with PBS, and air-dried for 5 minutes before cells were added. Hela cells were seeded at 10,000 cells/well and the cells were starved in 100 μL starvation medium containing Axl/Fc for 24 hrs.
The cells were pre-treated with test compounds by adding 100 μL of 2× test compound to the starvation medium on the cells. The cells were incubated at 37° C. for 1 hr before stimulation.
The cells were stimulated by Axl-antibody cross-linking as follows: A 5× 1st/2nd Axl antibody mixture was made (37.5 μg/mL 1st/100 μg/mL 2nd) in starvation medium and nutated at 4° C. with thorough mixing for 1-2 hours for clustering. The resulting mix was warmed to 37° C. 50 μL of 5× Axl 1st/2nd of antibody cluster was added to the cells and the cells were incubated at 37° C. for 5 min.
After 5 minutes stimulation, the plate was flicked to remove medium and the plate was tapped onto paper towels. Formaldehyde (4.0% in PBS, 100 μL) was added to fix the cells and the cells were incubated at ambient temperature for 20 min without shaking.
The cells were washed with a plate washer buffer to remove the formaldehyde solution. The plate was flicked to removed excess wash buffer and tapped onto paper towels. Quenching buffer (100 μL) was added to each well and the cells were incubated at ambient temperature for 20 minutes without shaking.
The cells were washed with a plate washer buffer to remove the quenching buffer. Blocking buffer (100 μL) was added and the cells were incubated at ambient temperature for at least an hour with gentle shaking.
The cells were washed with a plate washer buffer and diluted primary antibody (50 μL) was added to each well (blocking buffer was added to the negative control wells instead). The plates were incubated overnight at 4° C. with gentle shaking.
The wash buffer was removed, diluted secondary antibody (100 μL) was added, and the cells were incubated at ambient temperature for 1 hour with gentle shaking. […]

| Structure (SMILES) | pIC50 (Table 1, formula (Ia)) | further results |
| --- | --- | --- |
| Nc1nc(Nc2cccc3c2CCC(N2CCCC2)CC3)n(-c2cc3c(nn2)-c2ccccc2CCC3)n1 (stereo not drawn) [Compound 12, 1-(6,7-dihydro-5H-benzo[6,7]cyclohepta[1,2-c]pyridazin-3-yl)-N^5-(7-(pyrrolidin-1-yl)-6,7,8,9-tetrahydro-5H-benzo[7]annulene-1-yl)-1H-1,2,4-triazole-3,5-diamine] |  | pIC50 (Table 2, formula (Ib)): > 6.00 |
| Nc1nc(Nc2ccc3c(c2)CC[C@@H](NCc2cccc(Br)c2)CC3)nn1-c1cc2c(nn1)-c1ccccc1CCC2 [Compound 30, 1-(6,7-dihydro-5H-benzo[6,7]cyclohepta[1,2-c]pyridazin-3-yl)-N^3-((7S)-7-((3-bromophenyl)methyl)amino-6,7,8,9-tetrahydro-5H-benzo[7]annulene-2-yl)-1H-1,2,4-triazole-3,5-diamine] | 5.00 to 6.00 |  |
| Nc1nc(Nc2ccc3c(c2)CCC(N2CCN(CC(=O)O)CC2)CC3)nn1-c1cc2c(nn1)-c1ccccc1CCC2 (stereo not drawn) [Compound 10, 1-(6,7-dihydro-5H-benzo[6,7]cyclohepta[1,2-c]pyridazin-3-yl)-N^3-(7-(4-(carboxymethyl)piperazin-1-yl)-6,7,8,9-tetrahydro-5H-benzo[7]annulene-2-yl)-1H-1,2,4-triazole-3,5-diamine] | 5.00 to 6.00 |  |
| CC(C)(C)OC(=O)N[C@H]1CCc2ccc(Nc3nc(N)n(-c4cc5c(nn4)-c4ccccc4CCC5)n3)cc2CC1 [Compound 13, 1-(6,7-dihydro-5H-benzo[6,7]cyclohepta[1,2-c]pyridazin-3-yl)-N^3-((7S)-7-(t-butoxycarbonylamino)-6,7,8,9-tetrahydro-5H-benzo[7]annulene-2-yl)-1H-1,2,4-triazole-3,5-diamine] | < 4.70 |  |
| Nc1nc(Nc2ccc(N3CCC(N4CCCC4)CC3)c(F)c2)nn1-c1cc2c(nn1)-c1cccnc1CCC2 [Compound 45, 1-(6,7-dihydro-5H-pyrido[2′,3′:6,7]cyclohepta[1,2-c]pyridazin-3-yl)-N^3-(3-fluoro-4-(4-(pyrrolidin-1-yl)piperidin-1-yl)phenyl)-1H-1,2,4-triazole-3,5-diamine] |  | pIC50 (Table 3, formula (II)): < 4.70 |
| Nc1nc(Nc2ccc3c(c2)CC[C@@H](NCC2CC4C=CC2C4)CC3)nn1-c1cc2c(nn1)-c1ccccc1CCC2 (stereo partly drawn) [Compound 38, 1-(6,7-dihydro-5H-benzo[6,7]cyclohepta[1,2-c]pyridazin-3-yl)-N^3-((7S)-7-((bicyclo[2.2.1]hept-2-en-5-ylmethyl)amino)-6,7,8,9-tetrahydro-5H-benzo[7]annulene-2-yl)-1H-1,2,4-triazole-3,5-diamine] | > 6.00 |  |
| CC(C)(C)OC(=O)N[C@H]1CCc2ccc(Nc3nc(N)n(-c4cc5c(nn4)-c4cccnc4CCC5)n3)cc2CC1 [Compound 44] | < 4.70 |  |

More lines, main results first:

| pIC50 (Table 1, formula (Ia)) | Structure (SMILES) | further results |
| --- | --- | --- |
| > 6.00 | CC=CCN[C@H]1CCc2ccc(Nc3nc(N)n(-c4cc5c(nn4)-c4ccccc4CCC5)n3)cc2CC1 [Compound 42, 1-(6,7-dihydro-5H-benzo[6,7]cyclohepta[1,2-c]pyridazin-3-yl)-N^3-((7S)-7-(but-2-enylamino)-6,7,8,9-tetrahydro-5H-benzo[7]annulene-2-yl)-1H-1,2,4-triazole-3,5-diamine] |  |
| > 6.00 | CC(C)N[C@H]1CCc2ccc(Nc3nc(N)n(-c4cc5c(nn4)-c4ccccc4CCC5)n3)cc2CC1 [Compound 24, 1-(6,7-dihydro-5H-benzo[6,7]cyclohepta[1,2-c]pyridazin-3-yl)-N^3-((7S)-7-(2-propylamino)-6,7,8,9-tetrahydro-5H-benzo[7]annulene-2-yl)-1H-1,2,4-triazole-3,5-diamine] |  |
| > 6.00 | Nc1nc(Nc2ccc3c(c2)CC[C@@H](NC2CCC2)CC3)nn1-c1cc2c(nn1)-c1ccccc1CCC2 [Compound 32, 1-(6,7-dihydro-5H-benzo[6,7]cyclohepta[1,2-c]pyridazin-3-yl)-N^3-((7S)-7-(cyclobutylamino)-6,7,8,9-tetrahydro-5H-benzo[7]annulene-2-yl)-1H-1,2,4-triazole-3,5-diamine] |  |
| > 6.00 | CN(C)[C@H]1CCc2ccc(Nc3nc(N)n(-c4cc5c(nn4)-c4ccccc4CCC5)n3)cc2CC1 [Compound 31, 1-(6,7-dihydro-5H-benzo[6,7]cyclohepta[1,2-c]pyridazin-3-yl)-N^3-((7S)-7-(dimethylamino)-6,7,8,9-tetrahydro-5H-benzo[7]annulene-2-yl)-1H-1,2,4-triazole-3,5-diamine] |  |
| > 6.00 | CCCN(CCC)[C@H]1CCc2ccc(Nc3nc(N)n(-c4cc5c(nn4)-c4ccccc4CCC5)n3)cc2CC1 [Compound 19, 1-(6,7-dihydro-5H-benzo[6,7]cyclohepta[1,2-c]pyridazin-3-yl)-N^3-((7S)-7-(dipropylamino)-6,7,8,9-tetrahydro-5H-benzo[7]annulene-2-yl)-1H-1,2,4-triazole-3,5-diamine] |  |
| > 6.00 | CCOC(=O)C1CCN(C2CCc3ccc(Nc4nc(N)n(-c5cc6c(nn5)-c5ccccc5CCC6)n4)cc3CC2)CC1 (stereo not drawn) [Compound 6, 1-(6,7-dihydro-5H-benzo[6,7]cyclohepta[1,2-c]pyridazin-3-yl)-N^3-(7-(4-(ethoxycarbonyl)piperidin-1-yl)-6,7,8,9-tetrahydro-5H-benzo[7]annulene-2-yl)-1H-1,2,4-triazole-3,5-diamine] |  |
| > 6.00 | CCC(CC)CN[C@H]1CCc2ccc(Nc3nc(N)n(-c4cc5c(nn4)-c4ccccc4CCC5)n3)cc2CC1 [Compound 41, 1-(6,7-dihydro-5H-benzo[6,7]cyclohepta[1,2-c]pyridazin-3-yl)-N^3-((7S)-7-(2-ethylbutylamino)-6,7,8,9-tetrahydro-5H-benzo[7]annulene-2-yl)-1H-1,2,4-triazole-3,5-diamine] |  |
| > 6.00 | CC(C)N[C@H]1CCc2ccc(Nc3nc(N)n(-c4cc5c(nn4)-c4cccnc4CCC5)n3)cc2CC1 [Compound 54, 1-(6,7-dihydro-5H-pyrido[2′,3′:6,7]cyclohepta[1,2-c]pyridazin-3-yl)-N^3-((7S)-7-((methylethyl)amino)-6,7,8,9-tetrahydro-5H-benzo[7]annulene-2-yl)-1H-1,2,4-triazole-3,5-diamine] |  |

Reference: patent publication US9173882B2, “Polycyclic heteroaryl substituted triazoles useful as Axl inhibitors” (Rigel Pharmaceuticals, Inc., priority 2008, dated 2015)
